Test results published in US20240173325A1, “METHODS FOR TREATING SPINAL MUSCULAR ATROPHY” (Genentech, Inc., priority 2022, published 2024).
Where two headings read alike, the source gives them in different places.

Legend:
neurofilament = assay: Neurofilament light and phosphorylated heavy chain ELISA on plasma and serum; type: in vivo, human
Procedure: Neurofilament light and phosphorylated heavy chain assays were performed on plasma and serum samples using an ELISA assay, following the manufacturer's instructions (ProteinSimple, San Jose, CA, USA). Two runs were performed, each run having 3 aliquots run on the same plate and the mean value utilized. The average of the two runs was used for interpretation and in constructing FIG. 3 and FIG. 4.
The x-axis in FIG. 3 and FIG. 4 is associated with the date. The x-axis in FIG. 3 includes both prenatal dates (e.g., 32.5 WG or weeks gestation-37.6 WG) and postnatal dates or “PND” (e.g., d0-d43, referring to days post-birth of the fetal subject as the neonatal subject). The y- axis in FIG. 3 and FIG. 4 is associated with the mean neurofilament levels in blood (measured in pg/mL).
Further, in FIG. 3 and FIG. 4, “NF-L” refers to “neurofilament light chain,” which is a neuronal protein highly expressed in large caliber myelinated axons. NF-L levels increase in cerebrospinal fluid and blood proportionally to the degree of axonal damage in a variety of neurological disorders, including inflammatory, neurodegenerative, traumatic and cerebrovascular diseases. See Gaetani (2019) J. Neurol. Neurosurg. Psychiatry. 90(8):870-881. Additionally, “pNF-H” refers to the phosphorylated neurofilament heavy subunit (or phosphorylated NF-H). Further, as shown in FIG. 3 and FIG. 4, “Ser” refers to blood serum and “Pla” refers to blood plasma.

[1] = test system: FMO1 and FMO3, CYPs 1A1, 2J2, 3A4, and 3A7; settings: cited from earlier work
rabbit fetuses = settings: cited from earlier work
neonatal subject = assay: Electrophysiological testing (CMAP, MUNE); type: in vivo, human
Procedure: The electrophysiological testing described in this Example can serve as a prognostic biomarker. See Pino (2021) Biomark. Insights. 16:11772719211035643. Electrophysiological studies were performed using standard technique on a Natus UltraPro S100 instrument, with Natus pre-gelled disposable surface electrodes (#901350242) and standard settings for motor nerve conduction studies (LFF 10 Hz and HFF […]). The right ulnar nerve was stimulated at the elbow and recorded from the abductor digiti minimi (ADM) and the peroneal (fibular) nerve was stimulated at the knee and recorded from the tibialis anterior (TA) muscle.
Electrophysiological measurements, such as the compound muscle action potential (CMAP) in millivolts (mV) and motor unit number estimation (MUNE), monitor the functional status of the motor unit pool and are particularly pertinent to motor neuron disorders. See Arnold (2014) Ann. Clin. Transl. Neurol. 1(1):34:44. Cross-sectional studies have shown that CMAP and MUNE correlate with other measures of motor function, clinical severity, and overall function. See Arnold (2014) Ann. Clin. Transl. Neurol. 1(1):34:44.
The CMAP response measures the output of the motor units supplying a particular muscle or group of muscles. The CMAP size is determined by the size and number of depolarized muscle fibers following supramaximal nerve stimulation. Three active electrode placements were used for each nerve tested and the maximal amplitude of the negative peak of the CMAP was used for analysis. As a reference study for the CMAP data provided in Table 6, an ongoing Phase 2, open-label study (NURTURE) aims to evaluate the safety and efficacy of nusinersen in preventing or profoundly attenuating the severity of SMA when initiated prior to the onset of symptoms. See De Vivo (2019) Neuromuscul. Disord. 29(11):842-856. In accordance with this reference study, CMAP amplitudes were mean (SD) 2.7 (1.5) and median (range) 2.3 (1.0-6.7) and NeuroNEXT (typically developing infants) was mean (SD) 5.5±2.0. See Kolb (2016) Ann. Clin. Transl. Neurol. 3(2):132-45.
MUNE is an electrophysiological method that can measure the number of motor units supplying a particular muscle. It should be appreciated that the “N” of MUNE (ulnar N) in Table 6 refers to “nerve.” For pre-symptomatic SMA neonates, MUNE (ulnar N) ranges from 70-270. See Bromberg (2002) Muscle Nerve. 25(3):445-7; and Swoboda (2005) Ann Neurol. 57(5):704-12. In this Example, the MUNE was performed on the right ulnar nerve using the multipoint technique. A minimum of ten unique single motor unit potentials were captured with the mean value used for the calculation of the MUNE. […] See Swoboda, et al. (2005) Ann. Neurol. 57:704-712; and Bromberg (2002) Muscle Nerve 25:445-447.

rat fetuses = settings: dams treated at about 1 mg/kg/day to about 7.5 mg/kg/day; cited from earlier work

Cc1cn2nc(-c3cc(=O)n4cc(N5CCNC6(CC6)C5)ccc4n3)cc(C)c2n1 [risdiplam, 7-(4,7-diazaspiro[2.5]octan-7-yl)-2-(2,8-dimethylimidazo[1,2-b]pyridazin-6-yl)-4H-pyrido[1,2-a]pyrimidin-4-one]
pNF-H level in neonatal subject compared to the carrier (neurofilament; at delivery): about 10 fold | NF-L levels (neurofilament; carrier and neonatal subject, FIG. 3 and FIG. 4): low, with little change | Increase of post-partum pNF-H levels (neurofilament; carrier, 6-week observation period): approximately 2 fold | pNF-H level relative to lowest value in NURTURE study participants (neurofilament; neonatal subject): 35% | pNF-H level relative to NURTURE median value (20881) (neurofilament; neonatal subject versus pre-symptomatic SMN2X2 infants under 6 weeks): 1.4% | pNF-H level (neurofilament; neonatal subject, data point of FIG. 4 correlated to FIG. 5): 293 pg/mL | Activity of metabolites [1]: inactive | Metabolizing enzymes [1]: primarily metabolized by flavin monooxygenase 1 and 3 (FMO1 and FMO3) and also by CYPs 1A1, 2J2, 3A4, and 3A7 | Findings in rabbit fetuses (rabbit fetuses; at about 12 mg/kg/day): hydrocephalus, an abnormally small gall bladder, and lung variations | Findings in rabbit fetuses (rabbit fetuses; dams treated at about 1 mg/kg/day to about 12 mg/kg/day): reduced weight gain and cranium or brain variations | MUNE (Ulnar N) (neonatal subject; 1 week): 167 | Peroneal N CMAP (neonatal subject; 1 week): 2.7 mV | Ulnar N CMAP (neonatal subject; 1 week): 4.6 mV | Ulnar nerve CMAP relative to NURTURE median 2.3 mV (neonatal subject; 1 week): 2 fold | MUNE (Ulnar N) (neonatal subject; 6 weeks): 313 | Peroneal N CMAP (neonatal subject; 6 weeks): 3.5 mV | Ulnar N CMAP (neonatal subject; 6 weeks): 5.8 mV | Ulnar nerve CMAP relative to NURTURE median 2.3 mV (neonatal subject; 6 weeks): 2.5 fold | MUNE (Ulnar N) (neonatal subject; 18 weeks): 296 | Ulnar N CMAP (neonatal subject; 18 weeks): 7.1 mV | Findings in rat fetuses (rat fetuses): weight loss and minor differences in skeletal ossification
